Source: patent publication US9427482B2, “Agents for clearing biomolecules from circulation” (KONINKLIJKE PHILIPS N.V., priority 2010, dated 2016)

Columns and labels:
[1] = test system: LS174T xenografts; assay: Dual isotope biodistribution with different amounts of clearing agent 12 (Example 6); assay type: in vivo, mice
Experimental: (§1) LS174T tumor model. The human colon cancer cell line LS174T was obtained from the ATCC and maintained in Eagle's minimal essential medium (Sigma) supplemented with 10% heat inactivated fetal calf serum (Gibco), penicillin (100 U/mL), streptomycin (100 μg/mL) and […] Glutamax. Nude female Balb/C mice (20-25 g body weight, Charles River Laboratories) were inoculated subcutaneously with 5×10^6 cells in 100 μL sterile PBS.
Nude female mice (n=3-4) bearing LS174T xenografts (0.32±0.16 g) were injected ^125I-CC49-TCO (t=0, 100 μg/100 μl per mouse) followed by 20-200 μg galactose-MSA-tetrazine (12) dissolved in 100 μl saline solution (t=24 hours) and ^111In-labeled 15 (21.3 μg/75 μl per mouse, t=26 hours). At 29 hours post mAb injection, the mice were sacrificed, blood was withdrawn by heart puncture and selected organs and tissues were harvested and blotted dry. The blood samples and tissues were weighed, added with 1 mL PBS and the radioactivity was counted in a gamma counter along with standards to determine the % ID/g (Table 1).

[2] = test system: LS174T xenografts; assay: Biodistribution with single and repeated dose of clearing agent 12 (Example 7); assay type: in vivo, mice
Experimental: as §1
Nude female mice (n=4-6) bearing LS174T xenografts (0.38±0.23 g) were injected ^125I-CC49-TCO (t=0, 100 μg/100 μl per mouse) followed by (a) one 160 μg/100 μl dose of galactose-MSA-tetrazine (12) 48 hours post mAb injection, or (b) two 160 μg/100 μl 12 doses 46 and 48 hours post mAb injection, or (c) two 160 μg/100 μl 12 doses 28 and 48 hours post mAb injection. At 50 hours post mAb injection, the mice received 8.52 μg ^111In-tetrazine and were then sacrificed three hours later, blood was withdrawn by heart puncture and selected organs and tissues were harvested and blotted dry. The blood samples and tissues were weighed, added with 1 mL PBS and the radioactivity was counted in a gamma counter along with standards to determine the % ID/g. The biodistribution data of ^125I-CC49-TCO and ^111In-tetrazine are shown in Table 2 and the ^111In-tetrazine T/organ values are shown in Table 3.

[3] = without clearing agent, 21.3 μg tetrazine/mouse 24 hours post mAb injection; cited from earlier work
[4] = One dose (a): 12 at 48 h post mAb
[5] = Two doses (b): 12 at 46 and 48 h
[6] = Two doses (c): 12 at 28 and 48 h

## O=C([O-])CN1CCN(CC(=O)[O-])CCN(CC(=O)NCCOCCOCCOCCOCCOCCOCCOCCOCCOCCOCCOCCNC(=O)CCCC(=O)Nc2ccc(-c3nnc(-c4ccccn4)nn3)nc2)CCN(CC(=O)[O-])CC1.[111In+3] [^111In-tetrazine]
[1]; 12 dose 20 μg/mouse
  ^111In-tetrazine T/B: 4.5 ± 0.5
  ^111In-tetrazine Tumor: 3.7 ± 0.8 % ID/g
[1]; 12 dose 45 μg/mouse
  ^111In-tetrazine T/B: 4.8 ± 0.3
  ^111In-tetrazine Tumor: 4.1 ± 1.3 % ID/g
[1]; 12 dose 80 μg/mouse
  ^111In-tetrazine T/B: 9.2 ± 1.6
  ^111In-tetrazine Tumor: 3.8 ± 1.1 % ID/g
[1]; 12 dose 120 μg/mouse
  ^111In-tetrazine T/B: 11.5 ± 4.2
  ^111In-tetrazine Tumor: 3.0 ± 0.8 % ID/g
[1]; 12 dose 160 μg/mouse
  ^111In-tetrazine T/B: 31.6 ± 10.5
  ^111In-tetrazine Tumor: 5.1 ± 1.4 % ID/g
[1]; 12 dose 200 μg/mouse
  ^111In-tetrazine T/B: 19.2 ± 3.0
  ^111In-tetrazine Tumor: 3.6 ± 0.9 % ID/g
[2]; [4]
  ^111In-tetrazine T/organ blood: 8.2±4.1
  ^111In-tetrazine T/organ bone: 10.5 ± 6.5
  ^111In-tetrazine T/organ brain: 148.05 ± 61.18
  ^111In-tetrazine T/organ heart: 6.7 ± 1.3
  ^111In-tetrazine T/organ kidney: 2.8 ± 0.3
  ^111In-tetrazine T/organ liver: 10.9 ± 1.7
  ^111In-tetrazine T/organ lung: 3.1 ± 0.5
  ^111In-tetrazine T/organ muscle: 9.2±3.6
  ^111In-tetrazine T/organ spleen: 11.3 ± 3.3
  ^111In-tetrazine in blood: 0.40 ± 0.10 % ID/g
  ^111In-tetrazine in bone: 0.33 ± 0.12 % ID/g
  ^111In-tetrazine in brain: 0.02 ± 0.00 % ID/g
  ^111In-tetrazine in heart: 0.45 ± 0.08 % ID/g
  ^111In-tetrazine in kidney: 1.07 ± 0.10 % ID/g
  ^111In-tetrazine in liver: 0.27 ± 0.04 % ID/g
  ^111In-tetrazine in lung: 0.97 ± 0.17 % ID/g
  ^111In-tetrazine in muscle: 0.35 ± 0.08 % ID/g
  ^111In-tetrazine in spleen: 0.27 ± 0.04 % ID/g
  ^111In-tetrazine in tumor: 2.98 ± 0.51 % ID/g
[2]; [5]
  ^111In-tetrazine T/organ blood: 15.2 ± 4.1
  ^111In-tetrazine T/organ bone: 16.7 ± 6.7
  ^111In-tetrazine T/organ brain: 222.2 ± 73.6
  ^111In-tetrazine T/organ heart: 25.6 ± 12.0
  ^111In-tetrazine T/organ kidney: 1.6 ± 0.6
  ^111In-tetrazine T/organ liver: 11.5 ± 3.7
  ^111In-tetrazine T/organ lung: 8.5 ± 4.2
  ^111In-tetrazine T/organ muscle: 19.3 ± 9.2
  ^111In-tetrazine T/organ spleen: 15.1 ± 4.9
  ^111In-tetrazine in blood: 0.10 ± 0.02 % ID/g
  ^111In-tetrazine in bone: 0.10 ± 0.02 % ID/g
  ^111In-tetrazine in brain: 0.01 ± 0.00 % ID/g
  ^111In-tetrazine in heart: 0.07 ± 0.02 % ID/g
  ^111In-tetrazine in kidney: 0.95 ± 0.06 % ID/g
  ^111In-tetrazine in liver: 0.13 ± 0.01 % ID/g
  ^111In-tetrazine in lung: 0.20 ± 0.07 % ID/g
  ^111In-tetrazine in muscle: 0.09 ± 0.03 % ID/g
  ^111In-tetrazine in spleen: 0.10 ± 0.00 % ID/g
  ^111In-tetrazine in tumor: 1.52 ± 0.48 % ID/g
[2]; [6]
  ^111In-tetrazine T/organ blood: 89.0±14.3
  ^111In-tetrazine T/organ bone: 93.5 ± 19.7
  ^111In-tetrazine T/organ brain: 750.2 ± 87.5
  ^111In-tetrazine T/organ heart: 82.9 ± 21.3
  ^111In-tetrazine T/organ kidney: 3.7 ± 0.8
  ^111In-tetrazine T/organ liver: 32.3 ± 5.9
  ^111In-tetrazine T/organ lung: 27.9 ± 7.0
  ^111In-tetrazine T/organ muscle: 146.3±30.3
  ^111In-tetrazine T/organ spleen: 42.4 ± 7.7
  ^111In-tetrazine in blood: 0.05 ± 0.00 % ID/g
  ^111In-tetrazine in bone: 0.05 ± 0.01 % ID/g
  ^111In-tetrazine in brain: 0.01 ± 0.00 % ID/g
  ^111In-tetrazine in heart: 0.05 ± 0.01 % ID/g
  ^111In-tetrazine in kidney: 1.18 ± 0.13 % ID/g
  ^111In-tetrazine in liver: 0.13 ± 0.01 % ID/g
  ^111In-tetrazine in lung: 0.16 ± 0.03 % ID/g
  ^111In-tetrazine in muscle: 0.03 ± 0.00 % ID/g
  ^111In-tetrazine in spleen: 0.10 ± 0.01 % ID/g
  ^111In-tetrazine in tumor: 4.30 ± 0.50 % ID/g
[3]
  T/blood ratio: 2.2±0.5
